Tests used:
[1] = target: Vascular endothelial growth factor receptor 2 (Mus musculus, UniProt P35918); test: Inhibitory activity against VEGFR2
[2] = target: Platelet-derived growth factor receptor beta (Mus musculus, UniProt P05622); test: Inhibitory activity against PDGFRbeta
[3] = target: Fibroblast growth factor receptor 1 (Homo sapiens, UniProt P11362); test: Inhibitory activity against FGFR1
HMEC = test: Activity against HMVEC; assay type: functional, cell-based; conditions: Homo sapiens
[4] = Oral bioavailability in mice; assay type: ADME, organism-based; conditions: mouse, in vivo
[5] = Clearance in mice; assay type: ADME, organism-based; conditions: mouse, in vivo
[6] = Half life in mice at 5 mg/kg, iv; assay type: ADME, organism-based; set-up: dose 5 mg/kg, route intravenous; conditions: mouse, in vivo
[7] = Half life in mice at 20 mg/kg, po; assay type: ADME, organism-based; set-up: dose 20 mg/kg, route oral; conditions: mouse, in vivo
[8] = target: Vascular endothelial growth factor receptor 1 (Homo sapiens, UniProt P17948)
Vascular endothelial growth factor receptor 1, sequence (P17948 whole entry): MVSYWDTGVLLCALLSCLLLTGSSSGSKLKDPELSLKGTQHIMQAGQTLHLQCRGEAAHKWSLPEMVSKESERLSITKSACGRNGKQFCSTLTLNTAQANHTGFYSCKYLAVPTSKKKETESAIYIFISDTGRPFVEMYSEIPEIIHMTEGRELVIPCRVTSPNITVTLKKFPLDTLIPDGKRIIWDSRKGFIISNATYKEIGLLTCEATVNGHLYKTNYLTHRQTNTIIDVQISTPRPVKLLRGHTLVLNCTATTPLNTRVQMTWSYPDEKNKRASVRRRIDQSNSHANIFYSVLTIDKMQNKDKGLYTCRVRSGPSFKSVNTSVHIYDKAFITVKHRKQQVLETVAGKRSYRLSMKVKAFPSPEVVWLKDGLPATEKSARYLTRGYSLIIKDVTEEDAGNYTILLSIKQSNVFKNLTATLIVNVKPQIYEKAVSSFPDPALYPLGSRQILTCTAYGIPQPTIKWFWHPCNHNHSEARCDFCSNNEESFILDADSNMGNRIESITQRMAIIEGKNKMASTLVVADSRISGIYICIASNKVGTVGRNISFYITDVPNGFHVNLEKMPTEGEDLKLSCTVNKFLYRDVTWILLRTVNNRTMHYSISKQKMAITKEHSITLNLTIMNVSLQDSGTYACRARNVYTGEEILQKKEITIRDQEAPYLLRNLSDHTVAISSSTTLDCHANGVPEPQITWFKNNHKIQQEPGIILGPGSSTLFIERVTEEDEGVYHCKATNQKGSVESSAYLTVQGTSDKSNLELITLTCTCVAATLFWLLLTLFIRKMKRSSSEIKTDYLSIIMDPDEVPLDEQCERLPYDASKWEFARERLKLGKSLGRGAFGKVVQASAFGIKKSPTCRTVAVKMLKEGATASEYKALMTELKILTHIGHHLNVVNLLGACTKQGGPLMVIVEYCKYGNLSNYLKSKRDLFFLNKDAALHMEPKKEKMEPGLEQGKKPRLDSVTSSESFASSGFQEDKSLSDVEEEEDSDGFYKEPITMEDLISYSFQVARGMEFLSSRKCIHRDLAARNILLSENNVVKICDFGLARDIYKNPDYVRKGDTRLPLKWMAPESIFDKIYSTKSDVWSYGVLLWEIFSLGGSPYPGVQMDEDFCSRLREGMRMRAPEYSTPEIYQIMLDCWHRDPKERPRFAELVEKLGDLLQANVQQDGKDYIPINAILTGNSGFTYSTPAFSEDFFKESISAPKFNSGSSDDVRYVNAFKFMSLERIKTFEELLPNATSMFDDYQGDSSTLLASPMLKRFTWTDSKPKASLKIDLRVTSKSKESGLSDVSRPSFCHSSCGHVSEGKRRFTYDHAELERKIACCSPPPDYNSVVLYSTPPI
Description: Inhibitory activity against VEGFR1

Vascular endothelial growth factor receptor 2, sequence (P35918 whole entry): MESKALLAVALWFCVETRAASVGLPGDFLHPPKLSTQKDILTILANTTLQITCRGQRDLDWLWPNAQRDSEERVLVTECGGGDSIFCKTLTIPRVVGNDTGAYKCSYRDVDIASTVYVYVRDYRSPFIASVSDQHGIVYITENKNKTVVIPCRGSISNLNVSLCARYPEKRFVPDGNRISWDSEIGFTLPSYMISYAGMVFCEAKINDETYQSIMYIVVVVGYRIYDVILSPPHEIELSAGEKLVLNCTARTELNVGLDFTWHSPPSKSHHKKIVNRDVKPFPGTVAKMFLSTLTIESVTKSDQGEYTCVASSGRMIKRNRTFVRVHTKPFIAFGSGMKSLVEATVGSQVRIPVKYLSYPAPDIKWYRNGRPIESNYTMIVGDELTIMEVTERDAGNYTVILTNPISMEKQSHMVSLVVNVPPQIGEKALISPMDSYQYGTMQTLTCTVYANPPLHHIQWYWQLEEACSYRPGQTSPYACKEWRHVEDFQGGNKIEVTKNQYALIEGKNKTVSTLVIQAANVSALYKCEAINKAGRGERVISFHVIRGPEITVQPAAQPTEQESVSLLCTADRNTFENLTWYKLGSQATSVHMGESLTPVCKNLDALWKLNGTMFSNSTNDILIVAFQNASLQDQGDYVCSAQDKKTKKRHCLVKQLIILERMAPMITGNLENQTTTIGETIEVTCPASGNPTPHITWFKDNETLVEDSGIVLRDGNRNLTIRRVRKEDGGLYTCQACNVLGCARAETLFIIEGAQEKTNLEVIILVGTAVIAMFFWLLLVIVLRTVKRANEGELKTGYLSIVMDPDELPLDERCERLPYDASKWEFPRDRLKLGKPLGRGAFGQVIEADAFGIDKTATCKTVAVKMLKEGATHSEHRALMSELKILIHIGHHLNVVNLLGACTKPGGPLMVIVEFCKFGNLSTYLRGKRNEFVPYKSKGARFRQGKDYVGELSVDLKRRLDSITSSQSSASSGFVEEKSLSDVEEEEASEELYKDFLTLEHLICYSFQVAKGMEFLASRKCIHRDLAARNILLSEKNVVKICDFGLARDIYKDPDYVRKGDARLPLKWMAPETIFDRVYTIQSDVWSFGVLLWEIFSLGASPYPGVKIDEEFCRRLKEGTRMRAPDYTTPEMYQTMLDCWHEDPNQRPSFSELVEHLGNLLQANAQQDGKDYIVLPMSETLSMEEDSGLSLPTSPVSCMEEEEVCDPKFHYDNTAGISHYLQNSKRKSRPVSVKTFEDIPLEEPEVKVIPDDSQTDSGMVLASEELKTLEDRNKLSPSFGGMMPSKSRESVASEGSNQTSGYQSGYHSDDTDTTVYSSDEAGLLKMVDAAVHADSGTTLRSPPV
Platelet-derived growth factor receptor beta, sequence (P05622 whole entry): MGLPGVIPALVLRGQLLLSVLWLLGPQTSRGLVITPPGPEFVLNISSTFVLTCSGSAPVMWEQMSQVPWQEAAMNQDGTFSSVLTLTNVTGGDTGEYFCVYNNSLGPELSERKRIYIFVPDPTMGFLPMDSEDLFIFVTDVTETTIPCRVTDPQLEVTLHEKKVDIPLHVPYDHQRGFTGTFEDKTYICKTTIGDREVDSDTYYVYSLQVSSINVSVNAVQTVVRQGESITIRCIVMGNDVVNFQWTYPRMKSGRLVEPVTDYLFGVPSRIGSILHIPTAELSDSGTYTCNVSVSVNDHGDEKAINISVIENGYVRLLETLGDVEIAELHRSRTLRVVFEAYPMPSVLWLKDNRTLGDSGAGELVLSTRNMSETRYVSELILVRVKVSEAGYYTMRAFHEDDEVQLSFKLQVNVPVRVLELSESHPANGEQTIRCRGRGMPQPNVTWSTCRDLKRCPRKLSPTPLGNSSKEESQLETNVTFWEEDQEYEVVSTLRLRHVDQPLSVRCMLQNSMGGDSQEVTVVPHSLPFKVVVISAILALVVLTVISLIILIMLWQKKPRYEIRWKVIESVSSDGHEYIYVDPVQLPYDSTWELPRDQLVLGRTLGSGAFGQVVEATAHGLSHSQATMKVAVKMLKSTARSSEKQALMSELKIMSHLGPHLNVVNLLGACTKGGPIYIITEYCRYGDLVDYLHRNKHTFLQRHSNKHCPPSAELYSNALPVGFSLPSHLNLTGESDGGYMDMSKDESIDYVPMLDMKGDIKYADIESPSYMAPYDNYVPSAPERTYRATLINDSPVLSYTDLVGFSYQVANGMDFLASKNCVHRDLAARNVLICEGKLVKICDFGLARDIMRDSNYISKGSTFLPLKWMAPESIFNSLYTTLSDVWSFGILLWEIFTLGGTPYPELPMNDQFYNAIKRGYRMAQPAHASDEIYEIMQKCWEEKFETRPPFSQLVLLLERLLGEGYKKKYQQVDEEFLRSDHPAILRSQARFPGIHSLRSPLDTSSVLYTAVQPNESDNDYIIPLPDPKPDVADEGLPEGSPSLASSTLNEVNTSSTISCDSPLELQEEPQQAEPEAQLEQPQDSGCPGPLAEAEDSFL
Fibroblast growth factor receptor 1, sequence (P11362 whole entry): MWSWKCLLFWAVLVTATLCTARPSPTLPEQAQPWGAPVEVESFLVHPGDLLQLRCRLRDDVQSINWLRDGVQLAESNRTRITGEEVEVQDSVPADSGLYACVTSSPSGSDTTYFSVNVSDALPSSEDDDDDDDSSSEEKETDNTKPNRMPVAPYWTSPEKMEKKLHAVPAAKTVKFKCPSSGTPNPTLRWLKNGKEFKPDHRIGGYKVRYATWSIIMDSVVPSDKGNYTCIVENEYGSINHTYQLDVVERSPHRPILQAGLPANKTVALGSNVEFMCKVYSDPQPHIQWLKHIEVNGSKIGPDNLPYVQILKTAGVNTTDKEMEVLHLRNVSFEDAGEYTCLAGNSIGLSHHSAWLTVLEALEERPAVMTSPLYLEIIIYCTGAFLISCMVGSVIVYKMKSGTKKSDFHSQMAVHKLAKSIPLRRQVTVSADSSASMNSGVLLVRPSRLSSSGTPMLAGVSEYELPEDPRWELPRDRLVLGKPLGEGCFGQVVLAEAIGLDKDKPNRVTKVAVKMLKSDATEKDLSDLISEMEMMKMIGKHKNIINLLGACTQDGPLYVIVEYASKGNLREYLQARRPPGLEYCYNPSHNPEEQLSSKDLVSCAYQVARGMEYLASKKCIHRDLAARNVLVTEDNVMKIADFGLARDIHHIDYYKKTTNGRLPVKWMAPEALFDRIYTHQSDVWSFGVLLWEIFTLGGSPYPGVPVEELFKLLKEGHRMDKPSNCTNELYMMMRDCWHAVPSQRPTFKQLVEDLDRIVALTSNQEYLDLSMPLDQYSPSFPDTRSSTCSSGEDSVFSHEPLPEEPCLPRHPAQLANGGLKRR

IC50 [1] [nM] | IC50 [2] [nM] | IC50 [3] [nM] | EC50 (HMEC) [nM] | bioavailability [4] [%] | clearance [5] [mL/min/kg] | half-life [6] [h] | half-life [7] [h] | IC50 [8] [nM] | SMILES
2 | 64 | 10 | 84 | 87 | 24 | 0.433 | 1.3 |  | Nc1c(-c2nc3cc(N4CCOCC4)ccc3[nH]2)c(O)nc2cnccc12
13 | 27 | 8 | 20 |  |  |  |  |  | CN1CCN(c2ccc3[nH]c(-c4c(N)c5ccccc5[nH]c4=O)nc3c2)CC1
552 | 154 | 2660 | 3680 |  |  |  |  |  | Nc1c2ncnc-2[nH]c(O)c1-c1nc2ccccc2[nH]1
168 | 1590 | 576 | 2200 |  |  |  |  |  | Oc1nc2cnccc2c(O)c1-c1nc2ccccc2[nH]1
4 | 38 | 21 | 40 | 100 | 13 | 1.18 | 3.6 |  | Nc1c(-c2nc3cc(N4CCOCC4)ccc3[nH]2)c(=O)[nH]c2ccccc12
25 | 102 | 44 |  |  |  |  |  | 28 | Nc1c(-c2nc3ccccc3[nH]2)c(=O)[nH]c2ccccc12
24 | 30 | 10 | 51 |  |  |  |  |  | CN1CCN(c2ccc3nc(-c4c(N)c5ccccc5[nH]c4=O)[nH]c3n2)CC1
3 | 57 | 10 | 53 |  |  |  |  |  | Nc1c(-c2nc3ccccc3[nH]2)c(O)nc2cnccc12
3000 | 6530 | 5000 | > 10000 |  |  |  |  |  | Oc1nc2ncccc2c(O)c1-c1nc2ccccc2[nH]1
507 | 326 | 3170 | 3820 |  |  |  |  |  | Nc1c2cnnc-2[nH]c(O)c1-c1nc2ccccc2[nH]1
114 | 395 | 215 | 428 |  |  |  |  | 162 | O=c1[nH]c2ccccc2c(O)c1-c1nc2ccccc2[nH]1
3000 | 575 | 3000 | 321 |  |  |  |  |  | Cn1ncc2c(N)c(-c3nc4ccccc4[nH]3)c(O)nc21
109 | 691 | 348 | 850 |  |  |  |  |  | Nc1c(-c2nc3ccccc3[nH]2)c(O)nc2sccc12
8 | 48 | 47 | 34 | 84 | 61 | 1.08 | 0.95 |  | Nc1c(-c2nc3ccc(N4CCOCC4)nc3[nH]2)c(=O)[nH]c2ccccc12

SMILES | IC50 [1] [nM] | IC50 [2] [nM] | IC50 [3] [nM] | EC50 (HMEC) [nM] | bioavailability [4] [%] | clearance [5] [mL/min/kg] | half-life [6] [h] | half-life [7] [h] | IC50 [8] [nM]
CN1CCN(c2ccc3[nH]c(-c4c(O)nc5cnccc5c4N)nc3c2)CC1 | 1 | 43 | 4 | 16 |  |  |  |  | 
CN1CCN(c2ccc3[nH]c(-c4c(O)nc5cccnc5c4N)nc3c2)CC1 | 33 | 55 | 43 | 89 |  |  |  |  | 
Nc1c(-c2nc3cccnc3[nH]2)c(=O)[nH]c2ccccc12 | 16 | 25 | 51 | 88 |  |  |  |  | 
Nc1c(-c2nc3cccnc3[nH]2)c(=O)[nH]c2cnccc12 | 12 | 49 | 30 | 77 |  |  |  |  | 
Nc1c(-c2nc3cc(N4CCOCC4)ccc3[nH]2)c(O)nc2ccncc12 | 57 | 18 | 100 | 768 |  |  |  |  | 
